The data set has as its system Caco-2 monolayers.

What is called Papp is a coefficient for how fast a substance crosses the barrier. A low value points to poor permeation.

With lucifer yellow, the Papp is less than 1e+12 ×10⁻⁶ cm/s.

For the origin of these results see PMC6914219 (European journal of pharmacology, 2019).
